# Reference: article PMC7857503, “Multivalent lipid targeting by the calcium-independent C2A domain of synaptotagmin-like protein 4/granuphilin” (The Journal of Biological Chemistry, 2020)
# Molecular target: T1, Slp-4 C2A domain (synaptotagmin-like protein 4/granuphilin) (Homo sapiens, UniProt Q96C24)
# T1 construct: gene SYTL4; C2A domain G352-S494; N-terminal GST cleaved by thrombin; E. coli BL21(DE3); cation-exchange purified, unmodified main peak
# T1 sequence (Q96C24 352-494): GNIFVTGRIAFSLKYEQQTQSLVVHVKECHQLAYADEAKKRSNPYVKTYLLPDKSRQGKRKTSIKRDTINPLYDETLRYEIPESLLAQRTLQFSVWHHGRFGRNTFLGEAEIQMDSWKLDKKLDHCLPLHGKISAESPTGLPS
# Assay: Trp-to-dansyl FRET, competitive displacement of protein from dansyl-PE liposomes
# Assay type: binding
# Details: read-out: IC50 for IP6 (μM) ^a
smiles,measurement,value
"O=P(O)(O)O[C@H]1[C@H](OP(=O)(O)O)[C@@H](OP(=O)(O)O)[C@H](OP(=O)(O)O)[C@@H](OP(=O)(O)O)[C@H]1OP(=O)(O)O [IP6, D-myo-inositol-(1,2,3,4,5,6)-hexakisphosphate]",IC50,620 ± 80 µM
